pEC50, pIC50: −log10 of the molar value.
Experiments:
[1] = target: T1, Prolyl hydroxylase EGLN3 (Homo sapiens, UniProt Q9H6Z9); experiment: Inhibition of PHD3 in human Hep3B cells assessed as stimulation of EPO release after 48 hrs by ELISA; type: cell-based, Hep 3B2
[2] = target: T1, Prolyl hydroxylase EGLN3; experiment: Inhibition of 6His-tagged PHD3 (1 to 239) (unknown origin)-mediated Cy5CODD hydroxylation expressed in Escherichia coli preincubated for 3 mins followed by substrate addition measured after 30 mins
[3] = target: T2, Egl nine homolog 1 (Homo sapiens, UniProt Q9GZT9); experiment: Inhibition of FLAG-tagged full length PHD2 (unknown origin) expressed in Sf9 cells using HIF-1alpha peptide as substrate preincubated for 30 mins followed by substrate addition measured after 2 hrs by HTRF assay in presence of 2-oxoglutarate
Target sequence in this assay (Q9GZT9 whole entry): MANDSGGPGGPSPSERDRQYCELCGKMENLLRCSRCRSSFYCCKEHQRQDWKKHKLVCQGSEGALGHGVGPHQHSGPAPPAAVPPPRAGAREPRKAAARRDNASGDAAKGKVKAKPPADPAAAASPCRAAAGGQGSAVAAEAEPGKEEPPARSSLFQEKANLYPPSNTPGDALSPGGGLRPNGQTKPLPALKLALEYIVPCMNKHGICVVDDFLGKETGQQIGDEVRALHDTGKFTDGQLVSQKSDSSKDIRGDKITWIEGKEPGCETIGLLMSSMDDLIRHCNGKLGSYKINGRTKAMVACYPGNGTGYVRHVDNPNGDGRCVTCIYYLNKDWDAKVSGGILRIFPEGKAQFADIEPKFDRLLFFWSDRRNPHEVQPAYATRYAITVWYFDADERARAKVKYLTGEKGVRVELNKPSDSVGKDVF

[4] = target: T2, Egl nine homolog 1; experiment: Inhibition of human recombinant EGLN-1 using DLDLEALAPYIPADDDFQL as substrate after 20 mins by mass spectrophotometric analysis
Target sequence in this assay (Q9GZT9 whole entry): as above

[5] = target: T1, Prolyl hydroxylase EGLN3; experiment: Inhibition of full length human recombinant EGLN-3 using DLDLEALAPYIPADDDFQL as substrate after 20 mins by mass spectrophotometric analysis
[6] = target: T2, Egl nine homolog 1; experiment: Inhibition of PHD2 in HEK293 cells assessed as VEGF release by immunoassay; type: cell-based
Target sequence in this assay (Q9GZT9 whole entry): as above

[7] = tested on: Mus musculus; experiment: Suppression of TNBS-induced colitis in mouse assessed as increase in hematocrit at 1 to 5 mg/kg, po after 7 days relative to control; type: functional; settings: dose mg/kg 1-5
[8] = tested on: Hep 3B2; experiment: Inhibition of prolyl hydroxylase in human Hep3B cells assessed as stimulation of EPO release at 100 uM after 24 hrs relative to control; type: cell-based; set-up: scale not given: the % may be the effect or the level left
[9] = target: T2, Egl nine homolog 1; experiment: Inhibition of PHD2 (unknown origin) using P564 HIFlalpha as substrate after 1 hr by TR-FRET assay
Target sequence in this assay (Q9GZT9 whole entry): as above

[10] = target: T1, Prolyl hydroxylase EGLN3; experiment: Inhibition of 6His-tagged PHD3 (1 to 239) (unknown origin)-mediated Cy5CODD hydroxylation expressed in Escherichia coli after 30 mins
[11] = Inhibition of prolyl hydroxylase (unknown origin) using biotin-labeled DLDLEMLAPYIPMDDDFQL as substrate after 60 mins by FRET assay; set-up: species or system Homo sapiens
[12] = tested on: Homo sapiens; experiment: Antianemic activity in chronic kidney disease patient assessed as increase in hemoglobin level at 6 to 20 mg/kg administered twice weekly for 4 weeks relative to control; type: functional; settings: dose mg/kg 6-20
[13] = tested on: Homo sapiens; experiment: Antianemic activity in chronic kidney disease patient assessed as increase in hemoglobin level at 375 mg, po administered twice weekly for 15 weeks (reference value: 0.2 g/dl); type: functional
[14] = tested on: Homo sapiens; experiment: Antianemic activity in chronic kidney disease patient assessed as increase in hemoglobin level at 1250 mg, po administered twice weekly for 15 weeks (reference value: 0.2 g/dl); type: functional
[15] = tested on: Homo sapiens; experiment: Increase in plasma EPO level in anephric end stage renal disease patient at 20 mg/kg, po administered for 7 days relative to control; type: functional
[16] = tested on: Homo sapiens; experiment: Antianemic activity in chronic kidney disease patient assessed as increase in hemoglobin level at 625 mg, po administered twice weekly for 15 weeks measured after 4 weeks relative to control; type: functional
[17] = tested on: Homo sapiens; experiment: Increase in plasma EPO level in nephric end stage renal disease patient at 20 mg/kg, po administered for 7 days relative to control; type: functional
[18] = tested on: Homo sapiens; experiment: Antianemic activity in chronic kidney disease patient assessed as increase in hemoglobin level at 625 mg, po administered twice weekly for 15 weeks (reference value: 0.2 g/dl); type: functional
[19] = tested on: Homo sapiens; experiment: Antianemic activity in chronic kidney disease patient assessed as increase in hemoglobin level at 1250 mg, po administered twice weekly for 15 weeks measured after 4 weeks relative to control; type: functional
[20] = tested on: Homo sapiens; experiment: Antianemic activity in chronic kidney disease patient assessed as increase in hemoglobin level at 20 mg/kg, po administered 3 times per week for 4 weeks (reference value: 0.35 g/dL); type: functional
[21] = tested on: Homo sapiens; experiment: Antianemic activity in chronic kidney disease patient assessed as increase in hemoglobin level at 375 mg, po administered twice weekly for 15 weeks measured after 4 weeks relative to control; type: functional
[22] = tested on: Homo sapiens; experiment: Increase in plasma EPO level in human at 20 mg/kg, po administered for 7 days relative to control; type: functional
[23] = Inhibition of human CPH2 assessed as 2-Oxoglutarate conversion to succinic acid after 1 hr by radiometric HPLC analysis
[24] = organism: Homo sapiens; experiment: Inhibition of prolyl hydroxylase (unknown origin) assessed as stimulation of EPO release by cell-based assay
[25] = target: T2, Egl nine homolog 1; experiment: Inhibition of PHD2 (unknown origin)
Target sequence in this assay (Q9GZT9 whole entry): as above

[26] = target: T2, Egl nine homolog 1; experiment: Inhibition of HIF-PH2 (unknown origin) expressed in insect Hi5 cells using [methoxycoumarin]-DLDLEALAPYIPADDDFQL-amide as substrate at 7.4 uM by [14]CO2 capture assay relative to control; settings: BTI-TN-5B1-4
Target sequence in this assay (Q9GZT9 2-426 limits assumed): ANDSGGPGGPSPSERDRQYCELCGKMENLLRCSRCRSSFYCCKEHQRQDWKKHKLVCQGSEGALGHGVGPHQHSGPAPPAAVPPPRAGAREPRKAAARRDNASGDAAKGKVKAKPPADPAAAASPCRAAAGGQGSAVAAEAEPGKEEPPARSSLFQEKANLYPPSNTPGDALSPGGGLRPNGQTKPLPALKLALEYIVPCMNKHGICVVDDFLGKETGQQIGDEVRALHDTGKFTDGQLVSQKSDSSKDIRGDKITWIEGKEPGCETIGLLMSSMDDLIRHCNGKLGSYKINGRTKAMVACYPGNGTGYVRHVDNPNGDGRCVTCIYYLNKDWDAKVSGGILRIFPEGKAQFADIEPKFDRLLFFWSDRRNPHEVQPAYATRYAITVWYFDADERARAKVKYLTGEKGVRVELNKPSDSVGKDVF

[27] = target: T2, Egl nine homolog 1; experiment: Inhibition of HIF-PH2 (unknown origin) expressed in insect Hi5 cells using [methoxycoumarin]-DLDLEALAPYIPADDDFQL-amide as substrate at 22 uM by [14]CO2 capture assay relative to control; settings: BTI-TN-5B1-4
Target sequence in this assay (Q9GZT9 2-426 limits assumed): as above

[28] = tested on: Homo sapiens; experiment: Antianemic activity in chronic kidney disease patient assessed as hemoglobin level administered for 4 weeks; type: functional
[29] = tested on: Homo sapiens; experiment: Reduction in total cholesterol level in chronic kidney disease patient administered for 16 to 24 weeks relative to control; type: functional; set-up: scale not given: the % may be the effect or the level left
[30] = tested on: Homo sapiens; experiment: Antianemic activity in end stage renal disease patient receiving hemodialysis assessed as increase in hemoglobin level at 1.5 to 2 mg/kg, po administered thrice weekly for 6 weeks relative to control; type: functional; settings: dose mg/kg 1.5-2
[31] = tested on: Homo sapiens; experiment: Antianemic activity in nondialysis chronic kidney disease patient assessed as increase in hemoglobin level at 60 to 150 mg administered twice/thrice weekly for 16 to 24 weeks; type: functional
[32] = tested on: Homo sapiens; experiment: Antianemic activity in human assessed as change in hemoglobin level administered thrice weekly for 12 weeks; type: functional
[33] = Inhibition of human CPH1 assessed as 2-Oxoglutarate conversion to succinic acid after 1 hr by radiometric HPLC analysis
[34] = target: T2, Egl nine homolog 1; experiment: Inhibition of HIF-PH2 (unknown origin) expressed in insect Hi5 cells using [methoxycoumarin]-DLDLEALAPYIPADDDFQL-amide as substrate at 22.2 uM by [14]CO2 capture assay relative to control; settings: BTI-TN-5B1-4
Target sequence in this assay (Q9GZT9 2-426 limits assumed): as above

[35] = Inhibition of prolyl hydroxylase in human Hep3B cells assessed as stimulation of EPO release at 100 uM after 24 hrs by ELISA relative to control; type: cell-based, Hep 3B2

T1 sequence (Q9H6Z9 whole entry): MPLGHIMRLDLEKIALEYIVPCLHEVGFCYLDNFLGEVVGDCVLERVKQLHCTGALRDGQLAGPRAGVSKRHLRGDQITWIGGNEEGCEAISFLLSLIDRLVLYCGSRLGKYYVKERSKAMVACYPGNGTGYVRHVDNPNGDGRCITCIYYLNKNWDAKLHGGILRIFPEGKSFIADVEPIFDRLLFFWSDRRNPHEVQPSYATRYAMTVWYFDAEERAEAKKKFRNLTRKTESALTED

## COc1ccc(-n2c(=O)[nH]c3cc(C(=O)NCc4ccc5c(c4)OCO5)sc3c2=O)nc1OC
[1]
  pEC50: 6.00
[2]
  pIC50: 9.00

## O=C(O)CNC(=O)c1c(O)n2ccccc2nc1=O
[1]
  pEC50: < 5.00

## O=C(O)CNC(=O)c1c(O)c2c(n(CC3Cc4ccccc4C3)c1=O)COC2
[3]
  pIC50: > 8.00

## O=C(O)CNC(=O)c1ccc(-c2ccc3ccccc3c2)cn1
[4]
  pIC50: < 3.30
[5]
  pIC50: < 3.30

## O=C(O)CNC(=O)c1c(O)c(C(=O)NCc2ccccc2)c(O)n(Cc2ccccc2)c1=O
[1]
  pEC50: 9.00

## O=C(Cc1ccc2ccccc2c1)Nc1cnc(-n2cccn2)nc1O
[3]
  pIC50: 9.15

## CC(C)(C)OC(=O)N1CCN(Cc2ccn(Cc3ccc(Cl)cc3)c(=O)c2O)CC1 [IZILENDUSTAT]
[6]
  pEC50: 4.77
[7]
  Activity: 2%

## O=C(O)CNC(=O)c1c(O)c2c(n(Cc3ccc(C(F)(F)F)cc3)c1=O)CSC2
[3]
  pIC50: > 8.00

## O=C(O)CNC(=O)c1c(O)c(Br)cc2c1ncn2Cc1ccccc1
[2]
  pIC50: 9.00

## O=C(O)c1cnn(-c2nc(N3CCCC3)c3cc(Oc4ccc(Cl)cc4)ccc3n2)c1
[8]
  Activity: 96%

## O=C(O)CCC(=O)C1=C(O)c2ccc(Cl)cc2C2(CCOCC2)C1=O
[9]
  pIC50: > 7.00

## N#Cc1ccccc1Cn1c(=O)c(C(=O)NCC(=O)O)c(O)n(Cc2ccccc2)c1=O
[10]
  pIC50: 9.10
[1]
  pEC50: 6.40

## N#Cc1cn(-c2c[nH]n(-c3cc(N4CC(F)(F)C4)ncn3)c2=O)nn1
[11]
  pIC50: 7.15

## O=C(O)CNC(=O)c1c(O)c2ccc(F)cc2n(Cc2ccccc2Cl)c1=O
[10]
  pIC50: 7.70

## O=C(O)CNC(=O)c1nc(Cl)c2ccccc2c1O
[12]
  Activity: 1.3 g/dL
[13]
  Activity: 1.1 g/dL
[14]
  Activity: 2.4 g/dL
[15]
  fold change (FC): 14.5
[16]
  Activity: 60%
[17]
  fold change (FC): 30.8
[18]
  Activity: 1.4 g/dL
[19]
  Activity: 76%
[20]
  Activity: 1.9 g/dL
[21]
  Activity: 50%
[22]
  fold change (FC): 12.7

## Cn1c(=O)c(C(=O)NCC(=O)O)c(O)c2ccc(-c3cccnc3)nc21
[9]
  pIC50: > 7.30

## CC(C)(C)c1ccc(Cn2nc(-c3ccc(Cl)cc3)c(O)c(C(=O)NCC(=O)O)c2=O)cc1
[10]
  pIC50: 9.10
[1]
  pEC50: 6.40

## Cn1c(=O)c(C(=O)CCC(=O)O)c(O)c2ccc(Br)cc21
[23]
  pIC50: 4.89

## O=C(O)c1cnn(-c2nc3cc(OC(F)(F)F)c(Cl)cc3[nH]2)c1
[24]
  A50: 50 µM
[25]
  pIC50: 7.00

## O=C(O)CNC(=O)c1c(O)c2cc(Cl)cc(C#Cc3ccccc3)c2sc1=O
[26]
  inhibition: 99%

## COc1ccc(-n2c(=S)[nH]c3cc(C(=O)NCc4ccc(Cl)cc4)sc3c2=O)nc1OC
[1]
  pEC50: 6.00
[2]
  pIC50: 9.00

## O=C(O)CNC(=O)c1c(O)ccc2cc(-c3ccccc3)cnc12
[2]
  pIC50: 9.00

## Cc1cccc(CN2CCC3(CC2)C(=O)N(c2ccc(-c4ccccc4)cc2)c2ccc(C(=O)O)cc23)n1
[3]
  pIC50: 9.15

## Cn1c(=O)c(C(=O)NCC(=O)O)c(O)c2sccc21
[9]
  pIC50: 8.52

## O=C(O)CNC(=O)c1c(O)c(-c2cccnc2)cc2nccnc12
[1]
  pEC50: 7.00
[2]
  pIC50: 9.00

## O=C(O)CNC(=O)c1c(O)c2cc(-c3ccc(Oc4ccccc4)cc3)ccc2oc1=O
[26]
  inhibition: 100%

## O=C(O)CNC(=O)c1ncc(-c2ccc3ccccc3c2)cc1O
[4]
  pIC50: 7.77
[5]
  pIC50: 7.77

## COc1ccc(-n2c(=S)[nH]c3sc(C(=O)NCc4ccc(Cl)cc4)c(C)c3c2=O)nc1OC
[1]
  pEC50: 6.00
[2]
  pIC50: 9.00

## O=C(O)CNC(=O)c1c(O)c2c(Cl)c(Cl)c(Cl)n2n(Cc2ccccc2)c1=O
[27]
  inhibition: 99%

## O=C(O)CNC(=O)C1=C(O)c2ccc(Cl)cc2C2(CCOCC2)C1=O
[9]
  pIC50: > 7.00

## Cc1nc(C(=O)NCC(=O)O)c(O)c2ccc(Oc3ccccc3)cc12 [ROXADUSTAT]
[28]
  Activity: 1 g/dL
[29]
  Activity: -20%
[30]
  Activity: 1 g/dL
[31]
  Activity: 1.4 g/dL
[32]
  Activity: 2.1 g/dL

## O=C(O)CNC(=O)C1=C(O)c2ccccc2C1=O
[9]
  pIC50: 8.52

## Cn1c(=O)c(C(=O)NCC(=O)O)c(O)c2ccc(Br)cc21
[23]
  pIC50: 6.95
[33]
  pIC50: 6.45

## Cc1c(O)c(C(=O)NCC(=O)O)c(=O)n(Cc2ccccc2)c1C
[1]
  pEC50: < 5.00

## CC(C)(C)c1ccc(Cn2c(-c3c(Cl)cccc3Cl)nc(O)c(C(=O)NCC(=O)O)c2=O)cc1
[10]
  pIC50: 9.10
[1]
  pEC50: 6.40

## O=c1c(-c2cccnc2)c[nH]n1-c1cc(N2CCCCC2)ncn1
[11]
  pIC50: > 4.52

## O=C(O)CNC(=O)c1c(O)c(C(=O)NCc2ccccc2)cn(Cc2ccccc2)c1=O
[1]
  pEC50: 9.00

## COc1ccc(-n2c(=O)[nH]c3cc(C(=O)NCc4ccc(Cl)cc4)ncc3c2=O)nc1OC
[1]
  pEC50: 6.00
[2]
  pIC50: 9.00

## O=C(O)CNC(=O)c1nc(-c2cn(Cc3ccccc3)nn2)c2snc(-c3ccc(Cl)cc3)c2c1O
[34]
  inhibition: 100%

## O=C(O)CNC(=O)c1c2ncn(Cc3ccccc3)c2cc2c1ncn2Cc1ccccc1
[2]
  pIC50: 9.00

## O=C(O)CNC(=O)c1c(O)c2c(n(Cc3ccc(C(F)(F)F)cc3)c1=O)CN(C(=O)C1CC1)C2
[3]
  pIC50: > 8.00

## Cc1ccccc1-c1ccc2nc(-n3cc(C(=O)O)cn3)[nH]c(=O)c2c1
[8]
  Activity: 60%

## O=C(O)CNC(=O)c1c(O)cc(-c2cc(F)cc(Cl)c2)c2ncnn12
[35]
  pEC50: 5.23
